Reference: ChEMBL document CHEMBL2202954, “The effect of PLC-γ2 inhibitors on the growth of human tumour cells” (2012)

Assays:
Format in all cases: functional
[1] = test system: Malme-3M; test: Cytotoxicity against human MALME-3M cells assessed as cellular growth at 10 uM by SRB assay
[2] = test system: HOP-92; test: Cytotoxicity against human HOP92 cells assessed as cellular growth at 10 uM by SRB assay
[3] = test system: HCT-116; test: Cytotoxicity against human HCT116 cells assessed as cellular growth at 10 uM by SRB assay
[4] = test system: MDA-MB-435; test: Cytotoxicity against human MDA-MB-435 cells assessed as cellular growth at 10 uM by SRB assay
[5] = test system: IGROV-1; test: Cytotoxicity against human IGROV1 cells assessed as cellular growth at 10 uM by SRB assay
[6] = test system: DU-145; test: Cytotoxicity against human DU145 cells assessed as cellular growth at 10 uM by SRB assay
[7] = test system: COLO 205; test: Cytotoxicity against human COLO205 cells assessed as cellular growth at 10 uM by SRB assay
[8] = test system: NCI-H460; test: Cytotoxicity against human NCI-H460 cells assessed as cellular growth at 10 uM by SRB assay
[9] = test system: OVCAR-5; test: Cytotoxicity against human OVCAR5 cells assessed as cellular growth at 10 uM by SRB assay
[10] = test system: SK-MEL-5; test: Cytotoxicity against human SK-MEL-5 cells assessed as cellular growth at 10 uM by SRB assay
[11] = test system: SK-MEL-2; test: Cytotoxicity against human SK-MEL-2 cells assessed as cellular growth at 10 uM by SRB assay
[12] = test system: MDA-MB-468; test: Cytotoxicity against human MDA-MB-468 cells assessed as cellular growth at 10 uM by SRB assay
[13] = test system: A549; test: Cytotoxicity against human A549 cells assessed as cellular growth at 10 uM by SRB assay
[14] = test system: SK-OV-3; test: Cytotoxicity against human SKOV3 cells assessed as cellular growth at 10 uM by SRB assay
[15] = test system: HOP-62; test: Cytotoxicity against human HOP62 cells assessed as cellular growth at 10 uM by SRB assay
[16] = test system: MOLT-4; test: Cytotoxicity against human MOLT4 cells assessed as cellular growth at 10 uM by SRB assay
[17] = test system: MDA-MB-231; test: Cytotoxicity against human MDA-MB-231 cells assessed as cellular growth at 10 uM by SRB assay
[18] = test system: K562; test: Cytotoxicity against human K562 cells assessed as cellular growth at 10 uM by SRB assay
[19] = test system: OVCAR-8; test: Cytotoxicity against human OVCAR8 cells assessed as cellular growth at 10 uM by SRB assay
[20] = test system: OVCAR-4; test: Cytotoxicity against human OVCAR4 cells assessed as cellular growth at 10 uM by SRB assay

Row | Structure (SMILES) | Activity [1] | Activity [2] | Activity [3] | Activity [4] | Activity [5] | Activity [6] | Activity [7] | Activity [8] | Activity [9] | Activity [10] | Activity [11] | Activity [12] | Activity [13] | Activity [14] | Activity [15] | Activity [16] | Activity [17] | Activity [18] | Activity [19] | Activity [20]
1 | CC1(C)CCc2cc(-c3ccn(S(=O)(=O)c4cccc(C(F)(F)F)c4)n3)ccc2O1 | 102.22% | 38.91% | 74.24% | 97.38% | 109.7% | 98.46% | 123.8% | 90% | 108.57% | 69.29% | 107.75% | 67.07% | 80.37% | 96.16% | 102.63% | 66.45% | 95.04% | 63.16% | 93.92% | –
2 | Cc1ccc(S(=O)(=O)NC2=NC(=O)/C(=C\c3ccccc3)S2)cc1 | 112.01% | – | 111.6% | 110.94% | 124.8% | 111.67% | – | 119.27% | 111.88% | 100.29% | 117.54% | 110.23% | 103.33% | 107.71% | 100.56% | 86.66% | 100.89% | 94.57% | 102.48% | 96.34%
3 | c1ccc(-c2nc(-c3cccs3)no2)cc1 | 131.39% | 75.75% | 104.23% | 113.41% | 83.5% | 103.67% | 114.24% | 102.91% | – | 97.58% | 103.18% | 83.74% | 106.51% | 106.03% | 98.37% | 92.81% | 77.5% | 100.51% | 105.37% | –
4 | O=C(NCCc1ccccc1)c1cc2cccc([N+](=O)[O-])c2[nH]1 | – | 84.88% | 101.79% | 109.58% | 101.06% | 112.66% | 90.85% | 101.23% | 116.02% | 76.25% | 101.4% | 90.5% | 94.33% | 91.43% | 90.84% | 91.34% | 77.17% | 82.43% | 94.36% | 75.65%
5 | Cc1ccc2c(c1)N/C(=C/C(=O)c1ccc(Cl)cc1)C(=O)O2 | 99.95% | – | 105.71% | 105.53% | 136.06% | 112.1% | 118.18% | 109.79% | 106.86% | 102.04% | 108.87% | 107.35% | 92.75% | 110.03% | 113.93% | 86.91% | 86.67% | 99.7% | 101.66% | 88.88%
6 | COc1ccc2[nH]c(C(=O)NCc3ccccc3)cc2c1 | 88.8% | – | 94.88% | 104.78% | 99.05% | 111.13% | 123.53% | 110.92% | 116.46% | 97.92% | 108.1% | 99.1% | 100.34% | 108.16% | 104.71% | 83.12% | 91.31% | 92.68% | 102.92% | 93.84%
7 | Cc1ccc(NC(=O)c2sc3nc(-c4cccs4)ccc3c2N)cc1C | 118.51% | 106.34% | 106.03% | 101.83% | 117.67% | 103.5% | 112.33% | 98.65% | 115.16% | 98.52% | 82.1% | 44.79% | 96.75% | 112.05% | 103.01% | 80.3% | 116.18% | 90.31% | 102.12% | –
8 | O=S(=O)(Oc1ccc(-c2cnc3ccccc3n2)cc1)c1ccc2ccccc2c1 | – | 101.74% | 94.69% | 95.36% | – | 104.01% | 121.42% | 96.28% | 109.35% | 84.35% | 107.17% | 85.1% | 102.43% | 102.69% | 104.1% | 89.91% | 103.12% | 90.95% | 110.71% | –
9 | O=C(Nc1ccc(S(=O)(=O)Nc2nccs2)cc1)c1cccs1 | 104.82% | – | 108.46% | 110.15% | 120.24% | 114.06% | 135.23% | 123.68% | 112.09% | 107.39% | 113.23% | 102.57% | 96.04% | 117.21% | 114.96% | 95.09% | 103.15% | 104.24% | 106.2% | 103.47%
